# Assay results from patent publication US20230029496A1, “AMINO ACID ALTERNATIVE CURING SYSTEM” (THE TEXAS A&M UNIVERSITY SYSTEM, priority 2019, published 2023).
# Several values for one entry are separate records, joined by “and”; a condition that tells them apart may be missing. Equal values may be shown once. Read-outs that look alike come from different tables or passages of the source. Marks after values point to notes of the source that are not given here.
# What was measured:
# [1] = system: nitric oxide synthase system; conditions: beef, Phase II, without 547 ppm sodium erythorbate; for Residual Nitrite, LSMean main effect of Temperature: L-arginine
# Method: (§1) Fresh ground meat (beef, pork or poultry) was separated in ˜0.5 Kg batches and mixed with 2% salt and 10% added water. […] Each individual batch was mixed (1 min) in a food processor, removed for temperature and pH analyses and then placed into a jerky extruder tube. Approximately 25 g of sample were extruded into 50 mL centrifuge, then capped and labeled and placed into a controlled water batch and heated to a designated internal endpoint temperature (132, 158, or 165° F.).
# (§2) Samples also contained 547 ppm sodium erythorbate, a cure accelerator (Phase I) and without sodium erythorbate (Phase II). Samples were placed into test tubes and heated in a controlled water bath to 132, 158 and 165° F. Samples were held in a 40° F. cooler for seven days then tested for residual nitrite. Residual nitrite was tested after deproteinization for amino acid analysis by HPLC. Determination of nitrite (UV/VIS Spectrophotometric Method) was used to detect any residual nitrite for best results in detecting minute amounts of nitrite. Residual nitrite levels were read in a 96 well plate reader at 540 nm.
# (§3) Both phases of the experiment were designed as a factorial (concentration level and endpoint temperature) randomized complete block design with three replications. […] Least squares means were generated and Tukey's HSD used to determine significance at P≤0.05.
# NOS system = assay: Residual nitrite in test beef frankfurters (Example 12); conditions: for Nitrite: 7 days of storage
# Method: The remaining nonmeat ingredients were added (except the antimicrobial) and chopped at 2000 rpm for one minute. Protecta (sodium acetate antimicrobial) was added and the emulsion chopped at 4000 rpm for one minute. The emulsion was evacuated and placed into a vacuum assisted stuffer where each test emulsion was stuffed and twist linked into 22 mm cellulose casings weighing 40 g each. The frankfurter links were hung on smokehouse trucks, placed into a commercial smokehouse and thermally processed to 160° F. (Table 18).
# After thermal processing and chilling (40° F.), the casings were peeled from the frankfurters and were vacuum packaged and stored under refrigerated conditions for residual nitrite and nitrosylation. […] This was done to determine if the L-arginine could the NOS system to generate sufficient NO for cure color development and residual nitrite for antioxidant and antimicrobial effect.
# [2] = system: nitric oxide synthase system; conditions: pork; for Residual Nitrite, LSMean main effect of Temperature: L-arginine
# Method: as §1, §2, §3
compound,measurement,setting,value
N=C(N)NCCC[C@H](N)C(=O)O [L-arginine],"Residual Nitrite, LSMean main effect of Concentration",[1]; 1000 ppm L-arginine,107.03^a ppm and 107.03 ppm
same,"Residual Nitrite, LSMean Conc × Temp","[1]; 1000 ppm L-arginine, 132° F.",110.31^a ppm
same,"Residual Nitrite, LSMean Conc × Temp","[1]; 1000 ppm L-arginine, 158° F.",117.12^a ppm
same,"Residual Nitrite, LSMean Conc × Temp","[1]; 1000 ppm L-arginine, 165° F.",93.64^abc ppm
same,"Residual Nitrite, LSMean main effect of Concentration",[1]; 2000 ppm L-arginine,105.44^a ppm and 105.44 ppm
same,"Residual Nitrite, LSMean Conc × Temp","[1]; 2000 ppm L-arginine, 132° F.",101.25^abc ppm
same,"Residual Nitrite, LSMean Conc × Temp","[1]; 2000 ppm L-arginine, 158° F.",96.50^abc ppm
same,"Residual Nitrite, LSMean Conc × Temp","[1]; 2000 ppm L-arginine, 165° F.",118.58^a ppm
same,"Residual Nitrite, LSMean main effect of Concentration",[1]; 3000 ppm L-arginine,102.80^a ppm and 102.80 ppm
same,"Residual Nitrite, LSMean Conc × Temp","[1]; 3000 ppm L-arginine, 132° F.",107.12^ab ppm
same,"Residual Nitrite, LSMean Conc × Temp","[1]; 3000 ppm L-arginine, 158° F.",111.73^a ppm
same,"Residual Nitrite, LSMean Conc × Temp","[1]; 3000 ppm L-arginine, 165° F.",89.54^abc ppm
same,"Residual Nitrite, LSMean main effect of Concentration",[1]; 4000 ppm L-arginine,90.87^a ppm and 90.87 ppm
same,"Residual Nitrite, LSMean Conc × Temp","[1]; 4000 ppm L-arginine, 132° F.",101.77^ab ppm
same,"Residual Nitrite, LSMean Conc × Temp","[1]; 4000 ppm L-arginine, 158° F.",113.35^a ppm
same,"Residual Nitrite, LSMean Conc × Temp","[1]; 4000 ppm L-arginine, 165° F.",57.51^bcd ppm
same,"Residual Nitrite, LSMean main effect of Concentration",[1]; 5000 ppm L-arginine,40.23^b ppm and 40.23 ppm
same,"Residual Nitrite, LSMean Conc × Temp","[1]; 5000 ppm L-arginine, 132° F.",52.68^cd ppm
same,"Residual Nitrite, LSMean Conc × Temp","[1]; 5000 ppm L-arginine, 158° F.",37.81^d ppm
same,"Residual Nitrite, LSMean Conc × Temp","[1]; 5000 ppm L-arginine, 165° F.",30.19^d ppm
same,"Residual Nitrite, LSMean main effect of Temperature",[1]; 132° F.,95.63^a ppm and 95.63 ppm
same,"Residual Nitrite, LSMean main effect of Temperature",[1]; 158° F.,95.30^a ppm and 95.30 ppm
same,"Residual Nitrite, LSMean main effect of Temperature",[1]; 165° F.,77.89^b ppm and 77.89 ppm
same,Nitrite,NOS system; 1000 ppm L-arginine with 547 ppm sodium erythorbate,13 ppm and 13.43^bc ppm
same,Nitrite,"NOS system; 1000 ppm L-arginine, no cure accelerator",8.02^d ppm
same,Nitrite,NOS system; 5000 ppm L-arginine with 547 ppm sodium erythorbate,16 ppm and 15.87^b ppm
same,Nitrite,"NOS system; 5000 ppm L-arginine, no cure accelerator",10.64^cd ppm
same,residual nitrite levels,NOS system; range over L-arginine treated frankfurters after 7 days of storage,8.02 to 15.87 ppm
same,water activity (Aw),"3000 ppm L-arginine, Day 1",0.979
same,water activity (Aw),"3000 ppm L-arginine, Day 7",0.978
same,water activity (Aw),"3000 ppm L-arginine, Day 14",0.976
same,water activity (Aw),"3000 ppm L-arginine, Day 28",0.982
same,water activity (Aw),"4000 ppm L-arginine, Day 1",0.979
same,water activity (Aw),"4000 ppm L-arginine, Day 7",0.982
same,water activity (Aw),"4000 ppm L-arginine, Day 14",0.975
same,water activity (Aw),"4000 ppm L-arginine, Day 28",0.975
same,water activity (Aw),"5000 ppm L-arginine, Day 1",0.982
same,water activity (Aw),"5000 ppm L-arginine, Day 7",0.957
same,water activity (Aw),"5000 ppm L-arginine, Day 14",0.972
same,water activity (Aw),"5000 ppm L-arginine, Day 28",0.976
same,"Residual Nitrite, LSMean main effect of Concentration","[2]; Phase I, with 547 ppm sodium erythorbate, 1000 ppm L-arginine",57.57 ppm
same,"Residual Nitrite, LSMean Conc × Temp","[2]; Phase I, with 547 ppm sodium erythorbate, 1000 ppm L-arginine, 132° F.",39.35 ppm
same,"Residual Nitrite, LSMean Conc × Temp","[2]; Phase I, with 547 ppm sodium erythorbate, 1000 ppm L-arginine, 158° F.",70.84 ppm
same,"Residual Nitrite, LSMean Conc × Temp","[2]; Phase I, with 547 ppm sodium erythorbate, 1000 ppm L-arginine, 165° F.",62.52 ppm
same,"Residual Nitrite, LSMean main effect of Concentration","[2]; Phase I, with 547 ppm sodium erythorbate, 2000 ppm L-arginine",68.91 ppm
same,"Residual Nitrite, LSMean Conc × Temp","[2]; Phase I, with 547 ppm sodium erythorbate, 2000 ppm L-arginine, 132° F.",80.08 ppm
same,"Residual Nitrite, LSMean Conc × Temp","[2]; Phase I, with 547 ppm sodium erythorbate, 2000 ppm L-arginine, 158° F.",66.63 ppm
same,"Residual Nitrite, LSMean Conc × Temp","[2]; Phase I, with 547 ppm sodium erythorbate, 2000 ppm L-arginine, 165° F.",60.04 ppm
same,"Residual Nitrite, LSMean main effect of Concentration","[2]; Phase I, with 547 ppm sodium erythorbate, 3000 ppm L-arginine",61.54 ppm
same,"Residual Nitrite, LSMean Conc × Temp","[2]; Phase I, with 547 ppm sodium erythorbate, 3000 ppm L-arginine, 132° F.",60.68 ppm
same,"Residual Nitrite, LSMean Conc × Temp","[2]; Phase I, with 547 ppm sodium erythorbate, 3000 ppm L-arginine, 158° F.",61.71 ppm
same,"Residual Nitrite, LSMean Conc × Temp","[2]; Phase I, with 547 ppm sodium erythorbate, 3000 ppm L-arginine, 165° F.",62.24 ppm
same,"Residual Nitrite, LSMean main effect of Concentration","[2]; Phase I, with 547 ppm sodium erythorbate, 4000 ppm L-arginine",52.07 ppm
same,"Residual Nitrite, LSMean Conc × Temp","[2]; Phase I, with 547 ppm sodium erythorbate, 4000 ppm L-arginine, 132° F.",48.21 ppm
same,"Residual Nitrite, LSMean Conc × Temp","[2]; Phase I, with 547 ppm sodium erythorbate, 4000 ppm L-arginine, 158° F.",52.12 ppm
same,"Residual Nitrite, LSMean Conc × Temp","[2]; Phase I, with 547 ppm sodium erythorbate, 4000 ppm L-arginine, 165° F.",55.87 ppm
same,"Residual Nitrite, LSMean main effect of Concentration","[2]; Phase I, with 547 ppm sodium erythorbate, 5000 ppm L-arginine",64.52 ppm
same,"Residual Nitrite, LSMean Conc × Temp","[2]; Phase I, with 547 ppm sodium erythorbate, 5000 ppm L-arginine, 132° F.",40.28 ppm
same,"Residual Nitrite, LSMean Conc × Temp","[2]; Phase I, with 547 ppm sodium erythorbate, 5000 ppm L-arginine, 158° F.",65.12 ppm
same,"Residual Nitrite, LSMean Conc × Temp","[2]; Phase I, with 547 ppm sodium erythorbate, 5000 ppm L-arginine, 165° F.",88.16 ppm
same,"Residual Nitrite, LSMean main effect of Temperature","[2]; Phase I, with 547 ppm sodium erythorbate, 132° F.",53.72 ppm
same,"Residual Nitrite, LSMean main effect of Temperature","[2]; Phase I, with 547 ppm sodium erythorbate, 158° F.",63.29 ppm
same,"Residual Nitrite, LSMean main effect of Temperature","[2]; Phase I, with 547 ppm sodium erythorbate, 165° F.",65.72 ppm
same,"Residual Nitrite, LSMean main effect of Concentration","[2]; Phase II, without 547 ppm sodium erythorbate, 1000 ppm L-arginine",73.46^b ppm and 73.46 ppm
same,"Residual Nitrite, LSMean Conc × Temperature","[2]; Phase II, without 547 ppm sodium erythorbate, 1000 ppm L-arginine, 132° F.",53.73^c ppm
same,"Residual Nitrite, LSMean Conc × Temperature","[2]; Phase II, without 547 ppm sodium erythorbate, 1000 ppm L-arginine, 158° F.",84.43^bc ppm
same,"Residual Nitrite, LSMean Conc × Temperature","[2]; Phase II, without 547 ppm sodium erythorbate, 1000 ppm L-arginine, 165° F.",82.22^bc ppm
same,"Residual Nitrite, LSMean main effect of Concentration","[2]; Phase II, without 547 ppm sodium erythorbate, 2000 ppm L-arginine",94.97^ab ppm and 94.97 ppm
same,"Residual Nitrite, LSMean Conc × Temperature","[2]; Phase II, without 547 ppm sodium erythorbate, 2000 ppm L-arginine, 132° F.",85.87^bc ppm
same,"Residual Nitrite, LSMean Conc × Temperature","[2]; Phase II, without 547 ppm sodium erythorbate, 2000 ppm L-arginine, 158° F.",113.28^ab ppm
same,"Residual Nitrite, LSMean Conc × Temperature","[2]; Phase II, without 547 ppm sodium erythorbate, 2000 ppm L-arginine, 165° F.",85.76^bc ppm
same,"Residual Nitrite, LSMean main effect of Concentration","[2]; Phase II, without 547 ppm sodium erythorbate, 3000 ppm L-arginine",85.31^ab ppm and 85.31 ppm
same,"Residual Nitrite, LSMean Conc × Temperature","[2]; Phase II, without 547 ppm sodium erythorbate, 3000 ppm L-arginine, 132° F.",68.26^bc ppm
same,"Residual Nitrite, LSMean Conc × Temperature","[2]; Phase II, without 547 ppm sodium erythorbate, 3000 ppm L-arginine, 158° F.",90.54^bc ppm
same,"Residual Nitrite, LSMean Conc × Temperature","[2]; Phase II, without 547 ppm sodium erythorbate, 3000 ppm L-arginine, 165° F.",97.13^bc ppm
same,"Residual Nitrite, LSMean main effect of Concentration","[2]; Phase II, without 547 ppm sodium erythorbate, 4000 ppm L-arginine",102.65^a ppm and 102.65 ppm
same,"Residual Nitrite, LSMean Conc × Temperature","[2]; Phase II, without 547 ppm sodium erythorbate, 4000 ppm L-arginine, 132° F.",71.48^bc ppm
same,"Residual Nitrite, LSMean Conc × Temperature","[2]; Phase II, without 547 ppm sodium erythorbate, 4000 ppm L-arginine, 158° F.",150.78^a ppm
same,"Residual Nitrite, LSMean Conc × Temperature","[2]; Phase II, without 547 ppm sodium erythorbate, 4000 ppm L-arginine, 165° F.",85.70^bc ppm
same,"Residual Nitrite, LSMean main effect of Concentration","[2]; Phase II, without 547 ppm sodium erythorbate, 5000 ppm L-arginine",72.06^b ppm and 72.06 ppm
same,"Residual Nitrite, LSMean Conc × Temperature","[2]; Phase II, without 547 ppm sodium erythorbate, 5000 ppm L-arginine, 132° F.",59.74^c ppm
same,"Residual Nitrite, LSMean Conc × Temperature","[2]; Phase II, without 547 ppm sodium erythorbate, 5000 ppm L-arginine, 158° F.",77.63^bc ppm
same,"Residual Nitrite, LSMean Conc × Temperature","[2]; Phase II, without 547 ppm sodium erythorbate, 5000 ppm L-arginine, 165° F.",78.82^bc ppm
same,"Residual Nitrite, LSMean main effect of Temperature","[2]; Phase II, without 547 ppm sodium erythorbate, 132° F.",67.81^c ppm and 67.81 ppm
same,"Residual Nitrite, LSMean main effect of Temperature","[2]; Phase II, without 547 ppm sodium erythorbate, 158° F.",103.33^a ppm and 103.33 ppm
same,"Residual Nitrite, LSMean main effect of Temperature","[2]; Phase II, without 547 ppm sodium erythorbate, 165° F.",85.93^b ppm and 85.93 ppm
